Activity data for 1 compound are collected here from ChEMBL document CHEMBL4304816, “A Novel Biphenyl-based Chemotype of Retinoid X Receptor Ligands Enables Subtype and Heterodimer Preferences” (ACS Med Chem Lett, 2019).

The source made the active and inactive calls. No cut-off for these calls is given here.

Assay [1] deals with T1, Retinoic acid receptor RXR-alpha (Homo sapiens) (UniProt P19793).
T1 sequence (whole entry): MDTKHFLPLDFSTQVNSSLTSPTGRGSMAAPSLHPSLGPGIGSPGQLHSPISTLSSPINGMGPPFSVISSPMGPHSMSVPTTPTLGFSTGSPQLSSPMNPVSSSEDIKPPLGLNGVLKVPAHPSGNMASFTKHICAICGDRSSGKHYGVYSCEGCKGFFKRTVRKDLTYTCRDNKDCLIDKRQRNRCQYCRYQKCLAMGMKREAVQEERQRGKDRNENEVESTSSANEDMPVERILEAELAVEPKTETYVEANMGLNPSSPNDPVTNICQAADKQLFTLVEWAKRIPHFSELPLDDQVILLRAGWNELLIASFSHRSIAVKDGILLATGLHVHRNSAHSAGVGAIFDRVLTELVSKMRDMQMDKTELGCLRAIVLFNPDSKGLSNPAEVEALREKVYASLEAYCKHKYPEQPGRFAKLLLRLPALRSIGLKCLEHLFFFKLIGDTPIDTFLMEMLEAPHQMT
Briefly: Agonist activity at Gal4-LBD fused RXRalpha (unknown origin) expressed in HEK293T cells at 0.1 to 3 uM after 14 to 16 hrs in presence of RXR antagonist HX531 by dual-Glo luciferase reporter gene assay. It is filed as cell-based.

For assay [2], the target named is T2, Retinoic acid receptor RXR-gamma (Homo sapiens) (UniProt P48443).
T2 sequence (whole entry): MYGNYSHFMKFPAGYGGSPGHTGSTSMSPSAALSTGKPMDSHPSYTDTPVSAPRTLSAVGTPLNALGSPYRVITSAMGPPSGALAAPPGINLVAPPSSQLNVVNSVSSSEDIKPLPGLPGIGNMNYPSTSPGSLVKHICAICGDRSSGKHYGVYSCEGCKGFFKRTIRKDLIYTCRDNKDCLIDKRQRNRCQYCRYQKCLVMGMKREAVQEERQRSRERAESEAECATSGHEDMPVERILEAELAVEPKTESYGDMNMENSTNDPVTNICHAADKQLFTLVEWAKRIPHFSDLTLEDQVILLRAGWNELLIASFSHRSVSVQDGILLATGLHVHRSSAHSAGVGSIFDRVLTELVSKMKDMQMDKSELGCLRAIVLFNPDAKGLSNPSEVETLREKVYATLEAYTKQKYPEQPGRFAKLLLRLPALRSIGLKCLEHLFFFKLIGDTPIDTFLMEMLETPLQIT
Briefly: Agonist activity at Gal4-LBD fused RXRgamma (unknown origin) expressed in HEK293T cells at 0.1 to 3 uM after 14 to 16 hrs in presence of RXR antagonist HX531 by dual-Glo luciferase reporter gene assay. It counts as cell-based.

In the case of `Cc1cc(-c2cc(C(F)(F)F)cc(C(F)(F)F)c2)ccc1CC(=O)O`, the result in assay [1] and in assay [2] was inactive.
